Several values for one entry are separate records, joined by “and”; a condition that tells them apart may be missing. Equal entries are not always repeated. Where two headings read alike, the source gives them in different places.
System: panel of 140 standard cancer cell lines
Experiment: ProliFiler-140 cancer cell line screen (CellTiterGlo, 72 h)
Assay type: cell-based
Procedure: Incubations were performed for 72 h before automated viability readout with CellTiterGlo (Figure 8).
End of Figure S11 (part 5 of 5): ProliFiler-140 cancer cell line screening for cytotoxicity of the prodrugs.
8-data-point dose response curves from CellTiter-Glo® viability readout.
ProliFiler-140 cell line panel part V

Structure (SMILES): COc1cc2cc(C(=O)N3C[C@@H](CCl)c4c3cc(OC(=O)N(CCC(=O)N3CCN(C)CC3)[C@H]3CCSSC3)c3ccccc43)[nH]c2c(OC)c1OC [P-SS60-CBI-TMI]
- Reductive Activation Index (786-O (Kidney)): 5.22
- IC50 (786-O (Kidney), read-out: IC50 [M] (ProliFiler-140)): 2.26e-08 M and 2.3e-08 M
- Reductive Activation Index (A172 (Brain)): 4.87
- IC50 (A172 (Brain), read-out: IC50 [M] (ProliFiler-140)): 1.18e-07 M and 1.2e-07 M
- Reductive Activation Index (A375 (Skin)): 5.08
- IC50 (A375 (Skin), read-out: IC50 [M] (ProliFiler-140)): 3.23e-08 M and 3.2e-08 M
- Reductive Activation Index (A427 (Lung)): 5.0 and 5.03
- IC50 (A427 (Lung), read-out: IC50 [M] (ProliFiler-140)): 1.6e-07 M and 1.64e-07 M
- IC50 (A431 (Skin), read-out: IC50 [M] (ProliFiler-140)): 4.05e-08 M and 4e-08 M
- Reductive Activation Index (A498 (Kidney)): 5.96
- IC50 (A498 (Kidney), read-out: IC50 [M] (ProliFiler-140)): 5.04e-08 M and 5e-08 M
- IC50 (A498, read-out: IC50): 5e-08 M
- Reductive Activation Index (A549 (Lung)): 6.4
- IC50 (A549 (Lung), read-out: IC50 [M] (ProliFiler-140)): 1.2e-07 M
- IC50 (A549, read-out: IC50): 1.2e-07 M
- IC50 (A2058 (Skin), read-out: IC50 [M] (ProliFiler-140)): 1.5e-08 M
- IC50 (A2780 (Ovary), read-out: IC50 [M] (ProliFiler-140)): 1.2e-08 M
- Reductive Activation Index (AsPC-1 (Pancreas)): 8.2
- IC50 (AsPC-1 (Pancreas), read-out: IC50 [M] (ProliFiler-140)): 2.6e-07 M and 2.63e-07 M
- Reductive Activation Index (BEN (Lung)): 13
- IC50 (BEN (Lung), read-out: IC50 [M] (ProliFiler-140)): 1.1e-07 M and 1.12e-07 M
- Reductive Activation Index (BT-20 (Breast)): 4.6
- IC50 (BT-20 (Breast), read-out: IC50 [M] (ProliFiler-140)): 2.4e-07 M and 2.42e-07 M
- fold-change of IC50 relative to P-CC60 (BxPC-3): 6
- IC50 (BxPC-3 (Pancreas), read-out: IC50 [M] (ProliFiler-140)): 1.08e-07 M and 1.1e-07 M
- IC50 (COLO 205, read-out: IC50): 1.6e-07 M
- IC50 (COR-L279 (Lung), read-out: IC50 [M] (ProliFiler-140)): 1.4e-08 M and 1.43e-08 M
- IC50 (COV434 (Ovary), read-out: IC50 [M] (ProliFiler-140)): 2.2e-08 M and 2.24e-08 M
- Reductive Activation Index (Caki-1 (Kidney)): 5.23
- IC50 (Caki-1 (Kidney), read-out: IC50 [M] (ProliFiler-140)): 6.29e-08 M and 6.3e-08 M
- Reductive Activation Index (Caki-2 (Kidney)): 7.2
- IC50 (Caki-2 (Kidney), read-out: IC50 [M] (ProliFiler-140)): 2.1e-07 M
- Reductive Activation Index (Calu-6 (Lung)): 6.64
- IC50 (Calu-6 (Lung), read-out: IC50 [M] (ProliFiler-140)): 5.16e-08 M and 5.2e-08 M
- Reductive Activation Index (Colo 205 (Colon)): 4.9
- IC50 (Colo 205 (Colon), read-out: IC50 [M] (ProliFiler-140)): 1.6e-07 M and 1.57e-07 M
- Reductive Activation Index (DLD-1 (Colon)): 4.69 and 4.7
- IC50 (DLD-1 (Colon), read-out: IC50 [M] (ProliFiler-140)): 1.69e-07 M and 1.7e-07 M
- IC50 (DU-145 (Prostate), read-out: IC50 [M] (ProliFiler-140)): 3.6e-08 M and 3.58e-08 M
- IC50 (DV90 (Lung), read-out: IC50 [M] (ProliFiler-140)): 1.3e-08 M and 1.32e-08 M
- IC50 (Detroit562 (Head/Neck), read-out: IC50 [M] (ProliFiler-140)): 4.27e-08 M and 4.3e-08 M
- Reductive Activation Index (EFM-19 (Breast)): 4.2 and 4.18
- IC50 (EFM-19 (Breast), read-out: IC50 [M] (ProliFiler-140)): 2.3e-07 M
- Reductive Activation Index (EFM-192A (Breast)): 5.9
- IC50 (EFM-192A (Breast), read-out: IC50 [M] (ProliFiler-140)): 3e-07 M and 3.01e-07 M
- Reductive Activation Index (EFO-27 (Ovary)): 5.7
- IC50 (EFO-27 (Ovary), read-out: IC50 [M] (ProliFiler-140)): 1.6e-07 M and 1.58e-07 M
- IC50 (EPLC-272H (Lung), read-out: IC50 [M] (ProliFiler-140)): 7.9e-08 M
- Reductive Activation Index (H4 (Brain)): 5.36
- IC50 (H4 (Brain), read-out: IC50 [M] (ProliFiler-140)): 1.51e-08 M and 1.5e-08 M
- Reductive Activation Index (H460 (Lung)): 7.2
- IC50 (H460 (Lung), read-out: IC50 [M] (ProliFiler-140)): 7.1e-09 M and 7.11e-09 M
- IC50 (H1299 (Lung), read-out: IC50 [M] (ProliFiler-140)): 7.85e-08 M and 7.9e-08 M
- IC50 (H2228 (Lung), read-out: IC50 [M] (ProliFiler-140)): 5.68e-08 M and 5.7e-08 M
- IC50 (HCC38 (Breast), read-out: IC50 [M] (ProliFiler-140)): 1.9e-08 M
- Reductive Activation Index (HCC202 (Breast)): 7.1
- IC50 (HCC202 (Breast), read-out: IC50 [M] (ProliFiler-140)): 1.3e-07 M and 1.26e-07 M
- Reductive Activation Index (HCC827 (Lung)): 7.3
- IC50 (HCC827 (Lung), read-out: IC50 [M] (ProliFiler-140)): 1.9e-07 M
- Reductive Activation Index (HCC 1569 (Breast)): 8.2
- IC50 (HCC 1569 (Breast), read-out: IC50 [M] (ProliFiler-140)): 1.2e-07 M and 1.21e-07 M
- IC50 (HCT116 (Colon), read-out: IC50 [M] (ProliFiler-140)): 6.94e-08 M and 6.9e-08 M
- Reductive Activation Index (HCT-15 (Colon)): 5.23
- IC50 (HCT-15 (Colon), read-out: IC50 [M] (ProliFiler-140)): 1.04e-07 M and 1e-07 M
- IC50 (HCT-15, read-out: IC50): 1e-07 M
- Reductive Activation Index (HEC-1-A (Endometrium)): 6.5
- IC50 (HEC-1-A (Endometrium), read-out: IC50 [M] (ProliFiler-140)): 2.8e-07 M and 2.85e-07 M
- Reductive Activation Index (HEC-1-B (Endometrium)): 4.0
- IC50 (HEC-1-B (Endometrium), read-out: IC50 [M] (ProliFiler-140)): 8.3e-07 M and 8.33e-07 M
- IC50 (HL-60 (Blood), read-out: IC50 [M] (ProliFiler-140)): 1.8e-08 M and 1.83e-08 M
- Reductive Activation Index (HT-29 (Colon)): 5.3
- IC50 (HT-29 (Colon), read-out: IC50 [M] (ProliFiler-140)): 1.9e-07 M and 1.88e-07 M
- IC50 (HT-29, read-out: IC50): 1.9e-07 M
- IC50 (HT-1080 (Fibrosarcoma), read-out: IC50 [M] (ProliFiler-140)): 5.01e-08 M and 5e-08 M
- Reductive Activation Index (HeLa (Ovary)): 13.55
- Reductive Activation Index (Hep3B2.1-7 (Liver)): 5.6
- IC50 (Hep3B2.1-7 (Liver), read-out: IC50 [M] (ProliFiler-140)): 2.4e-07 M and 2.37e-07 M
- Reductive Activation Index (Hs 746T (Stomach)): 7.7
- IC50 (Hs 746T (Stomach), read-out: IC50 [M] (ProliFiler-140)): 1.3e-07 M and 1.29e-07 M
- Reductive Activation Index (HuH7 (Liver)): 5.70
- IC50 (HuH7 (Liver), read-out: IC50 [M] (ProliFiler-140)): 1.14e-07 M and 1.1e-07 M
- Reductive Activation Index (Hutu 80 (Duodenum)): 5.42 and 5.4
- IC50 (Hutu 80 (Duodenum), read-out: IC50 [M] (ProliFiler-140)): 9.92e-09 M and 9.9e-09 M
- IC50 (Ishikawa (Endometrium), read-out: IC50 [M] (ProliFiler-140)): 7.1e-09 M and 7.07e-09 M
- IC50 (J82 (Bladder), read-out: IC50 [M] (ProliFiler-140)): 9.88e-08 M and 9.9e-08 M
- Reductive Activation Index (JIMT-1 (Breast)): 8.4
- IC50 (JIMT-1 (Breast), read-out: IC50 [M] (ProliFiler-140)): 1.9e-07 M
- IC50 (JVM-3 (Blood), read-out: IC50 [M] (ProliFiler-140)): 8.72e-09 M and 8.7e-09 M
- IC50 (Jurkat (Blood), read-out: IC50 [M] (ProliFiler-140)): 1.64e-08 M and 1.6e-08 M
- Reductive Activation Index (K562 (Blood)): 5.3
- IC50 (K562 (Blood), read-out: IC50 [M] (ProliFiler-140)): 2.1e-07 M and 2.07e-07 M
- Reductive Activation Index (KARPAS 299 (Blood)): 4.42
- IC50 (KARPAS 299 (Blood), read-out: IC50 [M] (ProliFiler-140)): 1.6e-07 M
- Reductive Activation Index (KG-1 (Blood)): 4.67
- IC50 (KG-1 (Blood), read-out: IC50 [M] (ProliFiler-140)): 1.33e-07 M and 1.3e-07 M
- Reductive Activation Index (KG-1 a (Blood)): 5.26
- IC50 (KG-1 a (Blood), read-out: IC50 [M] (ProliFiler-140)): 1.05e-07 M and 1e-07 M
- IC50 (KMS-12-BM (Blood), read-out: IC50 [M] (ProliFiler-140)): 6.64e-08 M and 6.6e-08 M
- Reductive Activation Index (Kato III (Stomach)): 4.3
- IC50 (Kato III (Stomach), read-out: IC50 [M] (ProliFiler-140)): 3.7e-07 M and 3.72e-07 M
- Reductive Activation Index (LN229 (Brain)): 5.21
- IC50 (LN229 (Brain), read-out: IC50 [M] (ProliFiler-140)): 1.39e-07 M and 1.4e-07 M
- IC50 (LOU-NH91 (Lung), read-out: IC50 [M] (ProliFiler-140)): 7.5e-08 M and 7.46e-08 M
- IC50 (LOVO (Colon), read-out: IC50 [M] (ProliFiler-140)): 3.37e-08 M and 3.4e-08 M
- IC50 (LP-1 (Blood), read-out: IC50 [M] (ProliFiler-140)): 1.7e-07 M and 1.69e-07 M
- Reductive Activation Index (LnCap (Prostate)): 8.0
- IC50 (LnCap (Prostate), read-out: IC50 [M] (ProliFiler-140)): 1.1e-07 M and 1.12e-07 M
- Reductive Activation Index (M07e (Blood)): 8.55
- IC50 (M07e (Blood), read-out: IC50 [M] (ProliFiler-140)): 1.62e-08 M and 1.6e-08 M
- Reductive Activation Index (MCAS (Ovary)): 6.5 and 6.53
- IC50 (MCAS (Ovary), read-out: IC50 [M] (ProliFiler-140)): 1.3e-07 M and 1.25e-07 M
- IC50 (MCF-7 (Breast), read-out: IC50 [M] (ProliFiler-140)): 4.5e-08 M and 4.48e-08 M
- IC50 (MCF-7, read-out: IC50): 4.5e-08 M
- Reductive Activation Index (MDA MB 231 (Breast)): 4.24
- IC50 (MDA MB 231 (Breast), read-out: IC50 [M] (ProliFiler-140)): 1.74e-07 M and 1.7e-07 M
- Reductive Activation Index (MDA MB 435 (Skin)): 6.1
- IC50 (MDA MB 435 (Skin), read-out: IC50 [M] (ProliFiler-140)): 1.8e-07 M and 1.76e-07 M
- IC50 (MDA-MB-468 (Breast), read-out: IC50 [M] (ProliFiler-140)): 3.1e-08 M
- IC50 (MDA-MB-468, read-out: IC50): 3.1e-08 M
- IC50 (MEC-1 (Blood), read-out: IC50 [M] (ProliFiler-140)): 1.5e-08 M and 1.51e-08 M

Reference: publication PMC10141580, “Cyclic Dichalcogenides Extend the Reach of Bioreductive Prodrugs to Harness Thiol/Disulfide Oxidoreductases: Applications to seco-Duocarmycins Targeting the Thioredoxin System” (ACS Central Science, 2023)
